The source of these data is US20240343733A1, “COMPOUNDS FOR TARGETING DEGRADATION OF IRAK4 PROTEINS” (BIOGEN MA INC., priority 2021, published 2024).

One test concerns the target T1, IRAK4 (Homo sapiens, UniProt Q9NWZ3).
T1 construct: 293Tcells expressing HiBiT-tagged IRAK4 were then added into 384-well plates
T1 sequence (Q9NWZ3 1-460): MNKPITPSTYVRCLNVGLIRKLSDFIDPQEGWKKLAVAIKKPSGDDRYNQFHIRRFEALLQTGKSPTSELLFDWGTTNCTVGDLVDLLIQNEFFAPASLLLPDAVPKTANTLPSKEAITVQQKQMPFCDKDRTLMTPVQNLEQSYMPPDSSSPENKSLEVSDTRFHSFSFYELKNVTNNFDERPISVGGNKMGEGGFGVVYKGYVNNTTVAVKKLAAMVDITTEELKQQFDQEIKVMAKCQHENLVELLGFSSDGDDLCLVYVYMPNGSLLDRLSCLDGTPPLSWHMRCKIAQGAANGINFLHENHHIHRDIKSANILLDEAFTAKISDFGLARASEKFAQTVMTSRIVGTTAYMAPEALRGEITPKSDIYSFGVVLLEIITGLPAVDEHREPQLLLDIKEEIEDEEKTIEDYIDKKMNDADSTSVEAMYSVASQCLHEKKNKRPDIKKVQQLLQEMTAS
Put plainly: IRAK4 Degradation Assay, HiBiT Method. The class given is cell-based. Conditions: 293T cells expressing HiBiT-tagged IRAK4, 6 hours. The essentials:
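Luminescent read-out with Nano-Glo HiBiT lytic reagent after 6 h compound exposure at 37 °C. Cells were HiBiT-IRAK4 knock-in 293T (C-terminal tag), 10,000 per well. Compounds ran as 11-point half-log dilutions from […] highest dose, duplicate wells; DMSO served as negative control.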
On the technique in general: The HiBiT peptide binds its large partner to form an active luciferase.

In a further test the target is T2, IKZF1 (Homo sapiens, UniProt Q13422).
T2 construct: endogenously expressing IKZF1 with HiBiT fusion tag via CRISPR
T2 sequence (Q96SW2 whole entry partner, the tested form may be a part): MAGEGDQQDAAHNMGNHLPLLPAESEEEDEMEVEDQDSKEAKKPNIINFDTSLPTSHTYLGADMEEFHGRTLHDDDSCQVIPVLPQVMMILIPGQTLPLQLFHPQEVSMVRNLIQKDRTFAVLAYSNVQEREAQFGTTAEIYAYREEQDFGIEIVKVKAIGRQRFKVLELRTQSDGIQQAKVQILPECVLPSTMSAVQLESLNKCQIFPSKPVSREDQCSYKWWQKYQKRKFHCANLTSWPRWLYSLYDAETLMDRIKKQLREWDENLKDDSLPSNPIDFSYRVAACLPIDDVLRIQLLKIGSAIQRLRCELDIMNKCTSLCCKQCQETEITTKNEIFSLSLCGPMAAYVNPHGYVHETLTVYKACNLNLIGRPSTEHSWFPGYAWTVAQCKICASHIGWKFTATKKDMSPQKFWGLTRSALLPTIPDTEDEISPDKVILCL
T2 sequence (Q16531 whole entry partner, the tested form may be a part): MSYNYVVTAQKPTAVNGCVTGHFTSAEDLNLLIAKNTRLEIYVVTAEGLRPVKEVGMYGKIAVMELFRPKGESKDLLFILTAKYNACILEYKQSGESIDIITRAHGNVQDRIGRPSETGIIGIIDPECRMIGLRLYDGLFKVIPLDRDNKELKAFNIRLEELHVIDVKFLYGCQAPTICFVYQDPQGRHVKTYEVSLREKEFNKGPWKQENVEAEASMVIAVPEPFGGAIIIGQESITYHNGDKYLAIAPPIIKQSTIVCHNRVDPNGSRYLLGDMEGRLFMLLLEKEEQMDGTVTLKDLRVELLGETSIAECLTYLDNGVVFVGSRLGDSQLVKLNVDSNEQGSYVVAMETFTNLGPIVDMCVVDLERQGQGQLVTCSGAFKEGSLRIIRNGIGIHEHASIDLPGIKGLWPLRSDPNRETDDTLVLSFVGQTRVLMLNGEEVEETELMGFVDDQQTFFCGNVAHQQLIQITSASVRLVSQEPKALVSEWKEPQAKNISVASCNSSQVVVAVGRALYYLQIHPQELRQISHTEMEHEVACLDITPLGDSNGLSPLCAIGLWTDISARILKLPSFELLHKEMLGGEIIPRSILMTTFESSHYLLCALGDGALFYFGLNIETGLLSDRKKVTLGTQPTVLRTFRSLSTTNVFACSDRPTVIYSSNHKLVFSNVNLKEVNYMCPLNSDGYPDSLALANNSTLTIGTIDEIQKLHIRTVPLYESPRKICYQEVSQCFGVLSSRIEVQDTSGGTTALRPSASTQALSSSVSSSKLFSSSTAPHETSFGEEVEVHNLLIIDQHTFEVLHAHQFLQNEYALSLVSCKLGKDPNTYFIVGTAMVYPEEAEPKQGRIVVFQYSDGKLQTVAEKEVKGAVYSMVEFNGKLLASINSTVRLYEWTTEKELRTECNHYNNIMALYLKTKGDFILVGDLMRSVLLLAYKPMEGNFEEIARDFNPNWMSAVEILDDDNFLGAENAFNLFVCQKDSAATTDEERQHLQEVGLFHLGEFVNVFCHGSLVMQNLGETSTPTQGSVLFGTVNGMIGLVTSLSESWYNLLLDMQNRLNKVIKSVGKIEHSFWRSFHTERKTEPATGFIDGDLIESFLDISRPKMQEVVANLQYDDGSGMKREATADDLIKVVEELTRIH
T2 sequence (Q13422 whole entry, the tested form may be a part): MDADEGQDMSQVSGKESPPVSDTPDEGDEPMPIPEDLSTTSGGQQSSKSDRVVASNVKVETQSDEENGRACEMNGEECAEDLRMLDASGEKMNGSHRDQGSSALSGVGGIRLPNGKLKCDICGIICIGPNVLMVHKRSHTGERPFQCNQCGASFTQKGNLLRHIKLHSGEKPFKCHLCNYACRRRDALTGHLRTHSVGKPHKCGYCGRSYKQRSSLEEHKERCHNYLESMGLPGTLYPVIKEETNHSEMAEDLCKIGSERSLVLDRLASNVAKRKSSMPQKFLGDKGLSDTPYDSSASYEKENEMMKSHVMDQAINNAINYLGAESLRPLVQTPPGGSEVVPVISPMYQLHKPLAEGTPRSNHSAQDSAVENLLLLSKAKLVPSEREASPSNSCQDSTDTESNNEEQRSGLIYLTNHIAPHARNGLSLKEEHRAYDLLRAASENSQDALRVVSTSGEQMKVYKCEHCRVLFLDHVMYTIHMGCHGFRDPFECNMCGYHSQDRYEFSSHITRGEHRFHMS
Nature of the test: IKZF1 Degradation Assay, HiBiT Method. The class given is cell-based. The settings on record: NCIH929 cells expressing HiBiT-tagged IKZF1, 6 hours, top concentration 10 μM. The protocol: Assay 2. IKZF1 Degradation Assay, HiBiT Method
Selected compounds of this disclosure were tested in an IKZF1 degradation assay using the HiBiT Method.
RPMI no-phenol red medium and fetal bovine serum (FBS) were purchased from Gibco (Grand Island, NY, USA). Nano-Glo® HiBiT Lytic Assay System was purchased from Promega (Madison, WI, USA). […] Cell culture flasks and 384-well microplates were acquired from VWR (Radnor, PA, USA).
IKZF1 degradation was determined based on quantification of luminescent signal using Nano-Glo® HiBiT Lytic Assay kit. […] NCIH929 cells expressing HiBiT-tagged IKZF1 were added into 384-well plates in RPMI medium containing 10% FBS and 0.05 mM 2-mercaptoethanol at a cell density of 15000 cells per well. The plates were kept at 37° C. with 5% CO2 for 6 hours. Cells treated in the absence of the test compound were the negative control and wells containing media only were the positive control. After 6-hour incubation, Nano-Glo® HiBiT Lytic Assay reagents were added to the designated wells. Luminescence was acquired on EnVision® Multilabel Reader (PerkinElmer, Santa Clara, CA, USA).

On to `Cc1cnc2c(NC(=O)c3cn4cc([C@H]5CC[C@H](CN6CCC(c7ccc(OC8CCC(=O)NC8=O)cc7)CC6)CC5)nc4cc3OC(C)C)cnn2c1` (stereo partly shown) [Example 52, 2-[4-[[4-[4-[(2,6-dioxo-3-piperidyl)oxy]phenyl]-1-piperidyl]methyl]cyclohexyl]-7-isopropoxy-N-(6-methylpyrazolo[1,5-a]pyrimidin-3-yl)imidazo[1,2-a]pyridine-6-carboxamide], for which the DC50 on IRAK4 was less than 0.01 µM; on IKZF1, more than 10 µM.
On to `CC(C)Oc1cc2nc([C@H]3CC[C@H](CN4CCC(c5cc(F)c(C6CCC(=O)NC6=O)cc5F)C(F)(F)C4)CC3)cn2cc1C(=O)Nc1cnn2cccnc12` (stereo partly shown) [Example 53, 2-[4-[[4-[4-(2,6-dioxo-3-piperidyl)-2,5-difluoro-phenyl]-3,3-difluoro-1-piperidyl]methyl]cyclohexyl]-7-isopropoxy-N-pyrazolo[1,5-a]pyrimidin-3-yl-imidazo[1,2-a]pyridine-6-carboxamide], for which the DC50 at IRAK4 was 0.01 to 0.1 µM; at IKZF1, more than 10 µM.
For the compound `CC(C)Oc1cc2nn(C3CCN(C(=O)CN4CCC(c5ccc(NC6CCC(=O)NC6=O)cc5)CC4)CC3)cc2cc1C(=O)Nc1cnn2cccnc12` (stereo not shown) [Example 55, 2-(1-(2-(4-(4-((2,6-dioxopiperidin-3-yl)amino)phenyl)piperidin-1-yl)acetyl)piperidin-4-yl)-6-isopropoxy-N-(pyrazolo[1,5-a]pyrimidin-3-yl)-2H-indazole-5-carboxamide], the DC50 is less than 0.01 µM at IRAK4 and more than 10 µM at IKZF1.
In the case of `CC(C)Oc1cc2nc(C3CCN(C(=O)CN4CCC(c5ccc(C6CCC(=O)NC6=O)cc5)CC4)CC3)cn2cc1C(=O)Nc1cccc(C(F)F)n1` (stereo not shown) [Example 68, N-[6-(difluoromethyl)-2-pyridyl]-2-[1-[2-[4-[4-(2,6-dioxo-3-piperidyl)phenyl]-1-piperidyl]acetyl]-4-piperidyl]-7-isopropoxy-imidazo[1,2-a]pyridine-6-carboxamide], the results for the DC50 at IRAK4 and at IKZF1 were 0.01 to 0.1 µM and more than 10 µM, respectively.
With `CC(C)Oc1cc2nc(C3CCN(C(=O)CC4(O)CCN(c5ccc(NC6CCC(=O)NC6=O)cc5F)CC4)CC3)cn2cc1C(=O)Nc1cccc(C(F)F)n1` (stereo not shown) [Example 69, N-[6-(difluoromethyl)-2-pyridyl]-2-[1-[2-[1-[4-[(2,6-dioxo-3-piperidyl)amino]-2-fluoro-phenyl]-4-hydroxy-4-piperidyl]acetyl]-4-piperidyl]-7-isopropoxy-imidazo[1,2-a]pyridine-6-carboxamide], the DC50 was less than 0.01 µM on IRAK4 and more than 10 µM on IKZF1.
`CC(C)Oc1cc2nc(C3CCN(C(=O)CC4(O)CCN(c5cc(F)c(NC6CCC(=O)NC6=O)cc5F)CC4)CC3)cn2cc1C(=O)Nc1cccc(C(F)F)n1` (stereo not shown) [Example 70, N-[6-(difluoromethyl)-2-pyridyl]-2-[1-[2-[1-[4-[(2,6-dioxo-3-piperidyl)amino]-2,5-difluoro-phenyl]-4-hydroxy-4-piperidyl]acetyl]-4-piperidyl]-7-isopropoxy-imidazo[1,2-a]pyridine-6-carboxamide]: the DC50 is less than 0.01 µM at IRAK4 and more than 10 µM on IKZF1.
As to `CC(C)Oc1cc2nc(C3CCN(C(=O)CC4(O)CCN(c5ccc(NC6CCC(=O)NC6=O)cc5)CC4)CC3)cn2cc1C(=O)Nc1cccc(C(F)F)n1` (stereo not shown) [Example 71, N-[6-(difluoromethyl)-2-pyridyl]-2-[1-[2-[1-[4-[(2,6-dioxo-3-piperidyl)amino]phenyl]-4-hydroxy-4-piperidyl]acetyl]-4-piperidyl]-7-isopropoxy-imidazo[1,2-a]pyridine-6-carboxamide], the DC50 is 0.01 to 0.1 µM on IRAK4 and more than 10 µM at IKZF1.
Take `CC(C)Oc1cc2nc(C3CCN(C(=O)CC4(O)CCN(c5ccc(NC6CCC(=O)NC6=O)cc5Cl)CC4)CC3)cn2cc1C(=O)Nc1cccc(C(F)F)n1` (stereo not shown) [Example 73, 2-[1-[2-[1-[2-chloro-4-[(2,6-dioxo-3-piperidyl)amino]phenyl]-4-hydroxy-4-piperidyl]acetyl]-4-piperidyl]-N-[6-(difluoromethyl)-2-pyridyl]-7-isopropoxy-imidazo[1,2-a]pyridine-6-carboxamide]: the DC50 is less than 0.01 µM on IRAK4 and more than 10 µM on IKZF1.
Consider `CC(C)Oc1cc2nc(C3CCN(C(=O)CC4CCN(c5ncc(NC6CCC(=O)NC6=O)cc5F)CC4)CC3)cn2cc1C(=O)Nc1cccc(C(F)F)n1` (stereo not shown) [Example 81, N-[6-(difluoromethyl)-2-pyridyl]-2-[1-[2-[1-[5-[(2,6-dioxo-3-piperidyl)amino]-3-fluoro-2-pyridyl]-4-piperidyl]acetyl]-4-piperidyl]-7-isopropoxy-imidazo[1,2-a]pyridine-6-carboxamide], for which the DC50 on IRAK4 is 0.01 to 0.1 µM; at IKZF1, more than 10 µM.
For `CC(C)Oc1cc2nc(C3CCN(C(=O)CN4CCC(c5ccc(C6CCC(=O)NC6=O)cc5)CC4)CC3)cn2cc1C(=O)Nc1cnn2cccnc12` (stereo not shown) [Example 87, 2-[1-[2-[4-[4-(2,6-dioxo-3-piperidyl)phenyl]-1-piperidyl]acetyl]-4-piperidyl]-7-isopropoxy-N-pyrazolo[1,5-a]pyrimidin-3-yl-imidazo[1,2-a]pyridine-6-carboxamide], the DC50 on IRAK4 is less than 0.01 µM; at IKZF1, more than 10 µM.
Taken in the same sequence, the figures for `CC(C)Oc1cc2nc(C3CCN(CC(=O)N4CCC(c5ccc(C6CCC(=O)NC6=O)cc5)CC4)CC3)cn2cc1C(=O)Nc1cnn2cccnc12` (stereo not shown) [Example 96, 2-[1-[2-[4-[4-(2,6-dioxo-3-piperidyl)phenyl]-1-piperidyl]-2-oxo-ethyl]-4-piperidyl]-7-isopropoxy-N-pyrazolo[1,5-a]pyrimidin-3-yl-imidazo[1,2-a]pyridine-6-carboxamide] were 0.01 to 0.1 µM and more than 10 µM.
Take `CC(C)Oc1cc2nc(C3CCN(CC(=O)N4CCC(c5ccc(C6(F)CCC(=O)NC6=O)cc5)CC4)CC3)cn2cc1C(=O)Nc1cnn2cccnc12` (stereo not shown) [Example 98, 2-[1-[2-[4-[4-(3-fluoro-2,6-dioxo-3-piperidyl)phenyl]-1-piperidyl]-2-oxo-ethyl]-4-piperidyl]-7-isopropoxy-N-pyrazolo[1,5-a]pyrimidin-3-yl-imidazo[1,2-a]pyridine-6-carboxamide]: the DC50 on IRAK4 was 0.01 to 0.1 µM; on IKZF1, more than 10 µM.
For `CC(C)Oc1cc2nc(C3CCN(CC(=O)N4CCC(c5ccc(NC6CCC(=O)NC6=O)cc5)CC4)CC3)cn2cc1C(=O)Nc1cnn2cccnc12` (stereo not shown) [Example 104, 2-[1-[2-[4-[4-[(2,6-dioxo-3-piperidyl)amino]phenyl]-1-piperidyl]-2-oxo-ethyl]-4-piperidyl]-7-isopropoxy-N-pyrazolo[1,5-a]pyrimidin-3-yl-imidazo[1,2-a]pyridine-6-carboxamide], in that order: less than 0.01 µM and more than 10 µM.
On to `CC(C)Oc1cc2nc(C3CCN(CC(=O)N4CCC(c5ccc(NC6CCC(=O)NC6=O)cc5)CC4)CC3)cn2cc1C(=O)Nc1cccc(C(F)F)n1` (stereo not shown) [Example 105, N-[6-(difluoromethyl)-2-pyridyl]-2-[1-[2-[4-[4-[(2,6-dioxo-3-piperidyl)amino]phenyl]-1-piperidyl]-2-oxo-ethyl]-4-piperidyl]-7-isopropoxy-imidazo[1,2-a]pyridine-6-carboxamide], for which the DC50 was 0.01 to 0.1 µM at IRAK4 and more than 10 µM on IKZF1.

The DC50 is the concentration giving 50% degradation. Higher therefore signals degradation only at high concentration.
